The test system of one data set is phospho-ERK. As to the kind of experiment: Immunohistochemical staining of tumor sections with anti-pERK antibodies (melanoma biopsies pre- and post-treatment). The format is in vivo, human. Conditions: subject having melanoma, 600 mg BID; post- vs pre-treatment biopsy. The source says:
3. Immunohistochemical Staining of Tumor Sections with Anti-pERK Antibodies
Activated Raf kinase phosphorylates and activates MEK (mitogen-activated protein kinase kinase), which in turn phosphorylates and activates ERK (extracellular signal-regulated kinase), which translocates to the nucleus and modifies gene expression. This pathway is often aberrantly activated in tumor cells due to the presence of activated ras, mutant BRAF, or elevation of growth factor receptors. A semi-quantitative immunohistochemical method was developed to detect phosphorylated ERK (pERK) in human tumor biopsies as a patient selection biomarker for determining whether a patient will be responsive to a compound of the present invention, and also to assess its efficacy. The antibody used was a polyclonal antibody (rabbit) that detects the phosphorylation status of p44 and p42 (phospho-p44/42 MAPK (Thr202/Tyr204)) MAP kinases (ERK1 and ERK2). The procedure was accomplished as follows:
1. Tumor samples were obtained from patients. Samples were embedded in paraffin and sectioned.
2. […]
20. Each tissue section was assessed using the Bioquant TCW98 image analysis system. […]
A subject having a melanoma was treated with a compound in accordance with the present invention, and then a biopsy sample was assessed using the assay described above. […]

Data set [1] has as its system MIA PaCa-2 pancreatic (mutant k-Ras) xenograft. As to the kind of experiment: Tumor treatment, MIA PaCa-2 xenograft model. Type of data set: in vivo, CB17 SCID female mice. The note with it: p.o., qd×14. The protocol:
(§1) All treatments were administered p.o. on a qd×14 schedule. […] Similarly, the growth of MIA PaCa-2 tumors was inhibited 44%, 66%, and 73% at dosages of 10, 30, and 100 mg/kg/dose, respectively. The growth of NCI-H460 tumors was inhibited 27% and 56% at dosages of 10 and 30 mg/kg/dose of this Raf kinase inhibitor. The SK-OV-3 model was slightly more sensitive, generating 45%-81% tumor growth inhibitions at dosages of 3 to 100 mg/kg/dose.
HCT 116, SK-OV-3, and MIA PaCa-2 stock tumors were maintained as serial s.c. passages of fragments in CD-1 Nu/Nu female mice (HCT 116 and SK-OV-3) or CB17 SCID female mice (MIA-PaCa-2). Treatments were administered orally and were initiated against established tumors. Tumor dimensions were measured via calipers 2-3 times per week and were converted into tumor mass by the formula […], where L and W refer to the largest and smallest dimensions, respectively.

A further data set has as its system melanoma. Nature of the data set: Response of a subject having melanoma (PET and CT scans). The format is in vivo, human. Conditions: 600 mg BID. The protocol: A subject having a melanoma was treated with a compound in accordance with the present invention, and then a biopsy sample was assessed using the assay described above.
The subject was then administered a 600 mg BID dose of the compound.
A response to the compound was observed by comparing PET scans taken at baseline vs. the second cycle. […] This response corresponds with a decrease in the percent of nuclei expressing pERK in the post-treatment biopsy. […] The compound utilized was N-[4-chloro-3-(trifluoromethyl)phenyl]-N′-{4-[2-N-methylcarbamoyl-4-pyridyloxy]phenyl}urea.

Data set [2] has as its system NCI-H460 lung (mutant k-Ras) xenograft. As to the kind of experiment: Tumor treatment, NCI-H460 xenograft model. The note with it: p.o., qd×14. The format is in vivo. How it is done:
as §1

Data set [3] concerns Raf Pathway phospho-ERK, Breast. As to the kind of experiment: Cellular assay Raf pathway phospho-ERK, breast (Bio-Plex phospho-ERK1/2 immunoassay). The format is cell-based. Conditions: Homo sapiens, inhibition of target phosphorylation in whole cells by 50%. How it is done:
A 96-well phospho-ERK (PERK) immunoassay, using laser flow cytometry platform has been established to measure inhibition of basal pERK in cell lines. MDA-MB-231 cells were plated at 50,000 cells per well in 96-well microtitre plates in complete growth media. For effects of test compounds on basal pERK1/2 inhibition, the next day after plating, MDA-MB-231 cells were transferred to DMEM with 0.1% BSA and incubated with test compounds diluted 1:3 to a final concentration of 3 μM to 12 nM in 0.1% DMSO. Cells were incubated with test compounds for 2 h, washed, and lysed in Bio-Plex whole cell lysis buffer A. Samples are diluted with buffer B 1:1 (v/v) and directly transferred to assay plate or frozen at −80 C degrees until processed. 50 μL of diluted MDA-MB-231 cell lysates were incubated with about 2000 of 5 micron Bio-Plex beads conjugated with an anti-ERK1/2 antibody overnight on a shaker at room temperature. The next day, biotinylated phospho-ERK1/2 sandwich immunoassay was performed, beads are washed 3 times during each incubation and then 50 μL of PE-strepavidin was used as a developing reagent. The relative fluorescence units of pERK1/2 were detected by counting 25 beads with Bio-Plex flow cell (probe) at high sensitivity. The IC50 was calculated by taking untreated cells as maximum and no cells (beads only) as background.

The next data set relates to c-KIT phosphor-AKT. Nature of the data set: Cellular assay c-KIT pathway phosphor-AKT. Type of data set: cell-based.
Data set [4] concerns Raf Pathway phospho-ERK, Melanoma. As to the kind of experiment: Cellular assay Raf pathway phospho-ERK, melanoma. Type of data set: cell-based.
In the next data set the target is HER2 Receptor (Homo sapiens, UniProt P04626). The note with it: cellular assay, HER 1 & 2 Pathway.

The text below walks through data of US20070020704A1, “Diaryl ureas with kinase inhibiting activity” (priority 2003, published 2007).

Sequence of HER2 Receptor (P04626 23-1255): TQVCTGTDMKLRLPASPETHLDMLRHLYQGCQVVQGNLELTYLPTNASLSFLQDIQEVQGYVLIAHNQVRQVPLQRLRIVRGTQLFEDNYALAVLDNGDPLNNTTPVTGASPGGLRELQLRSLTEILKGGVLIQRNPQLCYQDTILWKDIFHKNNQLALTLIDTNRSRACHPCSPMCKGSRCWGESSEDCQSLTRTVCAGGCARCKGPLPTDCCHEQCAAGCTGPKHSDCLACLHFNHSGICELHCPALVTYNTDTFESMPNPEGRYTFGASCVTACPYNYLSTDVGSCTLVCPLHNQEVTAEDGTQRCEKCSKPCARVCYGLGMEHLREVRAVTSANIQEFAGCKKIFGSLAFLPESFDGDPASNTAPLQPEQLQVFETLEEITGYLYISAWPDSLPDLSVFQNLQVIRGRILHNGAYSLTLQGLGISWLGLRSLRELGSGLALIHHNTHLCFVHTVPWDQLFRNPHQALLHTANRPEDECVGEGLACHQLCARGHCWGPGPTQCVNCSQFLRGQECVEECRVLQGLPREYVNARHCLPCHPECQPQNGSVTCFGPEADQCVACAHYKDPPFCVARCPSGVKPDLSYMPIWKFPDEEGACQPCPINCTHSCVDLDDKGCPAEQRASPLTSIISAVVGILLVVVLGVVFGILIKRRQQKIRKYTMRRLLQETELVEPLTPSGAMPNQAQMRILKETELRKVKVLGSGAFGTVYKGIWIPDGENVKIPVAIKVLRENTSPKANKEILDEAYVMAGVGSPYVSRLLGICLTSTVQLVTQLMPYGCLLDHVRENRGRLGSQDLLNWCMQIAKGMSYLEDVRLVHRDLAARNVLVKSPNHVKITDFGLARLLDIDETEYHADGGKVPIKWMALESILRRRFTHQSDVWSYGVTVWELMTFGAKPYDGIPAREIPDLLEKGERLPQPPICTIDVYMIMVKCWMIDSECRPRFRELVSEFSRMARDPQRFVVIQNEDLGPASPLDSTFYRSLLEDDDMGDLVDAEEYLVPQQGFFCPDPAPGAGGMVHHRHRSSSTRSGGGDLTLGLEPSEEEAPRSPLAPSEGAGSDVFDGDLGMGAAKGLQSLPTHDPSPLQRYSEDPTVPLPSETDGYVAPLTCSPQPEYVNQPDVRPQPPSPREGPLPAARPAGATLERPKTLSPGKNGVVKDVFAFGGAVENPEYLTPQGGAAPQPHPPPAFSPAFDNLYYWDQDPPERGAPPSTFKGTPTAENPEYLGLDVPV

As usually defined, the melting point is the temperature of the solid-liquid transition. `CNC(=O)c1cc(Oc2ccc(NC(=O)Nc3cc(C(F)(F)F)c(Cl)cc3OC)cc2)ccn1` [Entry 95, N-[4-chloro-2-methoxy-5-(trifluoromethyl)phenyl]({4-[2-(N-methylcarbamoyl)(4-pyridyloxy)]phenyl}amino)carboxamide] displayed a melting point of 140 to 144 °C. On to `CNC(=O)c1cc(Oc2ccc(NC(=O)Nc3ccc(Cl)c(C(F)(F)F)c3)c(Cl)c2)ccn1` [Entry 49, {4-[3-chloro-4-({[4-chloro-3-(trifluoromethyl)phenyl]amino}carbonylamino)phenoxy](2-pyridyl)}-N-methylcarboxamide], for which the melting point fell in the range of 147 to 151 °C. Same read-out and setting: to `CNC(=O)c1cc(Oc2ccc(NC(=O)Nc3cc(C(F)(F)F)c(Cl)cc3OC)c(Cl)c2)ccn1` [Entry 96, N-[4-chloro-2-methoxy-5-(trifluoromethyl)phenyl]({2-chloro-4-[2-(N-methylcarbamoyl)(4-pyridyloxy)]phenyl}amino)carboxamide] belongs 244 to 245 °C; to `CNC(=O)c1cc(Oc2ccc(NC(=O)Nc3cc(C(F)(F)F)c(Cl)cc3OC)cc2Cl)ccn1` [Entry 97, N-[4-chloro-2-methoxy-5-(trifluoromethyl)phenyl]({3-chloro-4-[2-(N-methylcarbamoyl)(4-pyridyloxy)]phenyl}amino)carboxamide], 220 to 221 °C.

With `CNC(=O)c1cc(Oc2ccc(NC(=O)Nc3cc(C(F)(F)F)ccc3OC)cc2Cl)ccn1` [Entry 20, ({3-chloro-4-[2-(N-methylcarbamoyl)(4-pyridyloxy)]phenyl}amino)-N-[2-methoxy-5-(trifluoromethyl)phenyl]carboxamide], the melting point fell in the range of 214 to 216 °C. In the case of `CCNC(=O)c1cc(Oc2ccc(NC(=O)Nc3ccc(Cl)c(C(F)(F)F)c3)cc2)ccn1` [Entry 51, N-[4-chloro-3-(trifluoromethyl)phenyl]({4-[2-(N-ethylcarbamoyl)(4-pyridyloxy)]phenyl}amino)carboxamide], the melting point lay within 187 to 189 °C. Still for that read-out and setting: to `CCNC(=O)c1cc(Oc2ccc(NC(=O)Nc3cc(C(F)(F)F)c(Cl)cc3OC)cc2)ccn1` [Entry 99, N-[4-chloro-2-methoxy-5-(trifluoromethyl)phenyl]({4-[2-(N-ethylcarbamoyl)(4-pyridyloxy)]phenyl}amino)carboxamide] belongs 180 to 181 °C; to `CCNC(=O)c1cc(Oc2ccc(NC(=O)Nc3ccc(Br)c(C(F)(F)F)c3)cc2)ccn1` [Entry 88, N-[4-bromo-3-(trifluoromethyl)phenyl]({4-[2-(N-ethylcarbamoyl)(4-pyridyloxy)]phenyl}amino)carboxamide], 183 to 184 °C; to `CNC(=O)c1cc(Oc2ccc(NC(=O)Nc3cc(C(F)(F)F)ccc3OC)c(Cl)c2)ccn1` [Entry 17, ({2-chloro-4-[2-(N-methylcarbamoyl)(4-pyridyloxy)]phenyl}amino)-N-[2-methoxy-5-(trifluoromethyl)phenyl]carboxamide], 187 to 188 °C. On to `CNC(=O)c1cc(Oc2ccc(NC(=O)Nc3cc(C(F)(F)F)ccc3OC)c(C)c2)ccn1` [Entry 16, {4-[4-({N-[2-methoxy-5-(trifluoromethyl)phenyl]carbamoyl}amino)-3-methylphenoxy](2-pyridyl)}-N-methylcarboxamide], for which the melting point lay in the range of 210 to 213 °C.

Take `CNC(=O)c1cc(Oc2ccc(NC(=O)Nc3ccc(Br)c(C(F)(F)F)c3)cc2Cl)ccn1` [Entry 87, {4-[4-({[4-bromo-3-(trifluoromethyl)phenyl]amino}carbonylamino)-2-chlorophenoxy](2-pyridyl)}-N-methylcarboxamide]: the melting point was 217 to 219 °C. The compound `CNC(=O)c1cc(Sc2ccc(NC(=O)Nc3cc(C(F)(F)F)ccc3OC)cc2)ccn1` [Entry 27, N-[2-methoxy-5-(trifluoromethyl)phenyl]({4-[2-(N-methylcarbamoyl)(4-pyridylthio)]phenyl}amino)carboxamide] returned a melting point of 218 to 219 °C.

In turn, `CCNC(=O)c1cc(Oc2ccc(NC(=O)Nc3cc(C(F)(F)F)ccc3OC)cc2)ccn1` [Entry 19, ({4-[2-(N-ethylcarbamoyl)(4-pyridyloxy)]phenyl}amino)-N-[2-methoxy-5-(trifluoromethyl)phenyl]carboxamide] had a melting point of 194 to 196 °C. What is called IC50 is the point on the concentration scale where inhibition reaches its midpoint. Low readings indicate greater potency in that assay, high ones weaker potency in that assay. As for `CNC(=O)c1cc(Oc2ccc(NC(=O)Nc3ccc(Cl)c(C(F)(F)F)c3)cc2)ccn1` [N-[4-chloro-3-(trifluoromethyl)phenyl]-N′-{4-[2-N-methylcarbamoyl-4-pyridyloxy]phenyl}urea], in the data set with phospho-ERK, the “percent of nuclei expressing pERK in the post-treatment biopsy” value is “decrease”. The “growth of MIA PaCa-2 tumors inhibited” value is reported as 44% in data set [1] (10 mg/kg/dose), 66% in data set [1] (30 mg/kg/dose) and 73% in data set [1] (100 mg/kg/dose). Further, in the data set on melanoma (baseline vs. second cycle), the “PET scan metabolic activity after treatment” value is reported as “completely silent”. Also, the “CT scan measurements by RECIST” value with melanoma (through cycle 6 of treatment) is “stable disease”. The figures for the “growth of NCI-H460 tumors inhibited” value in [2] (10 mg/kg/dose) and in [2] (30 mg/kg/dose) were 27% and 56%, respectively. Further, the IC50 in data set [3] amounted to 80 nM; in the data set on c-KIT phosphor-AKT, 402 nM; in data set [4], 880 nM. Besides, at HER2 Receptor, the “IC50 (nM)” value is recorded as “INACTIVE”.

For the compound `COc1ccc(C(F)(F)F)cc1NC(=O)Nc1ccc(Oc2ccnc(C(N)=O)c2)cc1` [Entry 14, 4-[4-({N-[2-methoxy-5-(trifluoromethyl)phenyl]carbamoyl}amino)phenoxy]pyridine-2-carboxamide], the melting point was in the range of 114 to 117 °C.
